Measured values taken from US7691874B2, “Neuroprotective properties of dextrorotatory morphinans” (priority 2004, dated 2010).

Assays:
[1] = tested on: MPTP-treated mice; assay: MPTP-induced loss of nigral TH-IR with CB1 agonist/antagonist and HM; assay type: in vivo; conditions: combined with HM 20 mg/kg i.p.
Protocol: CB1 agonist or antagonist was administered 45 min before every MPTP, while HM was injected 30 min before every MPTP (20 mg/kg, i.p./day×7). Compounds were administered for 7 days post-final MPTP.

[2] = tested on: MA-treated mice; assay: MA-induced behavioural sensitization
Protocol: Morphinans (20 mg/kg, i.p.) were administered last 3 days of wash-out period.

[3] = tested on: LPS-treated mice; assay: LPS-induced mortality with CB1 agonist/antagonist and HM; assay type: in vivo
[4] = tested on: cocaine-treated mice; assay: Cocaine-induced behavioural sensitization with CB1 modulation
[5] = tested on: cocaine-treated mice; assay: Cocaine-induced conditioned place preference with CB1 modulation
Protocol: (§1) The control mice received an i.p. injection of saline just before entering the white or black compartment. Cocaine or MA dissolved in saline was administered immediately before the mice were placed in the white compartment. To test the effect of cocaine alone or MA alone or in combination with exemplified morphinans (DM, HM, AM, CM or DF), each morphinan was administered 2 hr before cocaine or saline injection.
(§2) On day 1, the mice were pre-exposed to the test apparatus for 5 min. The guillotine doors were raised and the mice were allowed to move freely between the two compartments. On day 2, the time each mouse spent in each compartment was recorded for 15 min. On days 3, 5, 7, 9, 11, and 13, the mice were injected with cocaine before being confined to the white compartment, the non-preferred side, for 20 min. On days 4, 6, 8, 10, and 12, the mice were injected with saline before being confined to the black compartment, the preferred side, for 20 min. On day 14, the guillotine doors were raised. The mice were initially placed in the tunnel and the time spent by the mice in the two compartments was recorded for 15 min. The scores were calculated from the differences in the time spent in the white compartment in the testing and pre-testing phases.

[6] = tested on: LPS-treated mice; assay: LPS-induced loss of nigral TH-IR with CB1 agonist/antagonist and HM; assay type: in vivo
Protocol: Mortality was observed by 2 weeks after bilateral LPS intrastriatal injection (one side: 2 μg×2).

[7] = tested on: MA-treated mice; assay: MA-induced conditioned place preference with CB1 modulation
Protocol: as §1, §2

[8] = tested on: MA-treated mice; assay: MA-induced loss of nigral TH-IR with CB1 agonist/antagonist and HM
Protocol: Compounds were administered 3 days before and after MA injection.

[9] = tested on: LPS-treated mice; assay: LPS model, HM versus L-dopa/carbidopa: microglia F4/80-like immunoreactivity; assay type: in vivo; conditions: substantia nigra
[10] = tested on: MA-treated mice; assay: MA model, HM versus L-dopa/carbidopa: hyperthermia; assay type: in vivo; conditions: MA 7.5 mg/kg i.p. x 4
Protocol: FIGS. 31A-31B show effect of drugs on the MA-induced hyperthermia. Mice received MA injections as 2 hrs' time interval under the ambient temperature of 22.0±0.5° C.
Experimental paradigm for MA with or without compounds is in FIG. 30. Treatment with MA (7.5 mg/kg, i.p.×four times as two hour time interval) produces hyperthermia (P<0.01).

[11] = tested on: LPS-treated mice; assay: LPS model, HM versus L-dopa/carbidopa: nigral TH-IR; conditions: mouse, in vivo
Source text: FIG. 27 show effects of carbidopa, L-dopa, carbidopa+L-dopa and HM on the nigral tyrosine hydroxylase-like immunoreactivity (TH-IR) of the mice treated with LPS.

[12] = tested on: LPS-treated mice; assay: LPS model, HM versus L-dopa/carbidopa: locomotor activity; assay type: in vivo; conditions: 3 weeks after LPS
Protocol: Locomotor activity was examined for 60 min at 3 weeks after LPS treatment. LPS-induced significant reduction (P<0.01 vs. saline treatment) in locomotor activity was attenuated by L-dopa (P<0.05), carbidopa+L-dopa (P<0.05) or HM (P<0.01) (FIGS. 24 and 25).

[13] = tested on: MA-treated mice; assay: MA model, HM versus L-dopa/carbidopa: locomotor activity; assay type: in vivo; conditions: 3 days after MA
[14] = tested on: LPS-treated mice; assay: LPS model, HM versus L-dopa/carbidopa: mortality; assay type: in vivo; conditions: intrastriatal LPS 2 μg x 4/head; 2 weeks
Protocol: Mortality was observed by 2 weeks after LPS injection. *P<0.01 vs. Saline+LPS (x^2-test).
The neuroprotective effect of HM was compared with L-dopa, carbidopa, or carbidopa plus L-dopa in response to dopaminergic damage induced by LPS. Intrastriatal injection of LPS (2 μg×4/head) produced high mortality (ten animals died out of twelve animals in the 2 weeks after LPS administration).

[15] = tested on: MPTP-treated mice; assay: MPTP model, HM versus L-dopa/carbidopa: locomotor activity; assay type: in vivo; conditions: HM 24 mg/kg i.p., L-dopa 200 mg/kg p.o., carbidopa 20 mg/kg p.o., 2 weeks before MPTP
Protocol: FIGS. 20A-20B show effects of carbidopa, L-dopa, carbidopa+L-dopa and HM on the changes in locomotor activity (A) and locomotor pattern (B) induced by MPTP in mice.
A prescription drug for treating Parkinsonian patients is L-dopa or carbidopa plus L-dopa. Thus, the neuroprotective effects of HM was compared with L-dopa, carbidopa, or carbidopa plus L-dopa. […] Locomotor activity was examined for 60 min after final treatment of MPTP. Mice were sacrificed at 24 h after final MPTP administration. HM (24 mg/kg, i.p.), L-dopa (200 mg/kg, p.o.) with or without carbidopa (20 mg/kg, p.o.) was administered for 2 weeks before first MPTP challenge.

**Q.** For `CCCCC/C=C\C/C=C\C/C=C\C/C=C\CCCC(=O)NCCCl` [ACEA, arachidonyl-2-chloroethylamide], which “effect on MPTP-induced loss in TH-IR when combined with HM / on HM's action” value [1] is on record?
**A.** counteracted HM's neuroprotective action

**Q.** And the “behavioural effects of the compound itself” value ([2]; AM 251 0.3, ACEA 2, HM 20 mg/kg, no MA (Ex. 3.14))?
**A.** Neither saline-, AM 251 (0.3 mg/kg)-, ACEA (2 mg/kg)-treated nor HM (20 mg/kg)-treated animals showed any behavioural effects

**Q.** And the “effect on MA-induced behavioural sensitization (CB1 modulation study)” value ([2]; MA 1 mg/kg i.p./day x 7, challenge one week later (Ex. 3.14))?
**A.** Neither ACEA nor AM 251 influenced behavioural sensitization by cocaine

**Q.** And the “effect on HM's effect on MA-induced sensitization” value ([2]; combined with HM)?
**A.** significantly reversed HM's effect

**Q.** What about the “effect on HM-induced protective (anti-mortal) effect” value ([3]; combined with HM 20 mg/kg) of the same compound?
**A.** reversed HM-induced protective (anti-mortal) effect

**Q.** What about the “effect on LPS-induced mortality” value ([3]; given alone: HM 20, ACEA 2, AM-251 0.3 mg/kg, 2 weeks after bilateral intrastriatal LPS) of the same compound?
**A.** Neither AM-251 nor ACEA significantly changed LPS-induced mortality

**Q.** And the “behavioural effects of the compound itself” value ([4]; AM 251 0.3, ACEA 2, HM 20 mg/kg, no cocaine)?
**A.** Neither saline-, AM 251 (0.3 mg/kg)-, ACEA (2 mg/kg)-treated nor HM (20 mg/kg)-treated animals showed any specific behavioural effects

**Q.** What about the “effect on cocaine-induced behavioural sensitization” value ([4]; cocaine 10 mg/kg/day i.p. x 7, challenge one month later) of the same compound?
**A.** Neither ACEA nor AM 251 alter behavioural sensitization by cocaine

**Q.** And the “effect on HM's effect in response to cocaine-induced sensitization” value ([4]; combined with HM)?
**A.** Neither ACEA nor AM 251 significantly alter HM's effect

**Q.** What about the “CPP response of the compound itself” value ([5]; AM 251 0.3, HM 20, ACEA 2 mg/kg, no cocaine) of the same compound?
**A.** showed CPP effects

**Q.** What about the “effect on cocaine-induced CPP” value ([5]; cocaine 10 mg/kg) of the same compound?
**A.** did not alter CPP effects by cocaine

**Q.** And the “effect on HM's effect in response to cocaine-induced CPP” value ([5]; combined with HM 20 mg/kg)?
**A.** appears to counteract the cocaine-induced CPP

**Q.** What about the “effect on LPS-induced loss in TH-IR when combined with HM / on HM's effect” value ([6]; combined with HM) of the same compound?
**A.** counteracted HM's protective effect

**Q.** What about the “effect on LPS-induced reduction in nigral TH-IR” value ([6]; given alone) of the same compound?
**A.** did not alter LPS-induced reduction in TH-IR

**Q.** And the “CPP response of the compound itself” value ([7]; AM 251 0.3, HM 20, ACEA 2 mg/kg i.p., no MA)?
**A.** showed CPP effects

**Q.** And the “effect on HM's effect in response to MA-induced CPP” value ([7]; combined with HM)?
**A.** significantly counteracted

**Q.** What about the “effect on MA-induced CPP” value ([7]; mouse, in vivo) of the same compound?
**A.** did not alter CPP effects by MA

**Q.** And the “effect on MA-induced reduction in TH-IR when combined with HM / on HM's effect” value ([8]; combined with HM 20 mg/kg)?
**A.** reversed HM's protective effect

**Q.** What about the “effect on MA-induced reduction in nigral TH-IR” value ([8]; given alone) of the same compound?
**A.** did not alter MA-induced reduction in TH-IR

**Q.** For `N[C@@H](Cc1ccc(O)c(O)c1)C(=O)O` [L-dopa], which “effect on LPS-induced increase in F4/80-like immunoreactivity (microglia)” value [9] is on record?
**A.** significantly attenuated

**Q.** And the “effect on MA-induced hyperthermia” value [10]?
**A.** significantly attenenuated

**Q.** And the “effect on LPS-induced loss in nigral TH-IR” value [11]?
**A.** significantly attenuated

**Q.** And the “effect on LPS-induced reduction in locomotor activity” value [12]?
**A.** attenuated

**Q.** What about the “effect on MA-induced reduction in locomotor activity” value [13] of the same compound?
**A.** significantly enhanced

**Q.** And the “effect on mortality induced by LPS” value [14]?
**A.** appears to attenuate mortality induced by LPS

**Q.** And the “effect on MPTP-induced decrease in locomotor activity” value [15]?
**A.** appeared to increase

**Q.** With `C[C@@](Cc1ccc(O)c(O)c1)(NN)C(=O)O` [carbidopa] as the compound, how does the “effect on LPS-induced increase in F4/80-like immunoreactivity (microglia)” value [9] read?
**A.** significantly attenuated

**Q.** And the “effect on MA-induced hyperthermia” value [10]?
**A.** significantly attenenuated

**Q.** What about the “effect on LPS-induced loss in nigral TH-IR” value [11] of the same compound?
**A.** significantly attenuated

**Q.** What about the “effect on mortality induced by LPS” value [14] of the same compound?
**A.** appears to attenuate mortality induced by LPS

**Q.** And the “effect on MPTP-induced decrease in locomotor activity” value [15]?
**A.** appeared to increase
